Data taken from ChEMBL document CHEMBL4725230, “Syntheses and pharmacokinetic evaluations of four metabolites of 2-(4-(2-((1H-benzo[d]imidazol-2-yl)thio)ethyl)piperazin-1-yl)-N-(6-methyl-2,4-bis-(methylthio)pyridin-3-yl)acetamide hydrochloride [K-604], an acyl-CoA:cholesterol O-acyltransferase-1 inhibitor” (Bioorg Med Chem, 2020).

How the values were obtained:
Cytochrome P450 3A5 [1] = molecular target: T1, Cytochrome P450 3A5 (Homo sapiens, UniProt P20815); experiment: Drug metabolism in human liver microsomes assessed as CYP3A5-mediated 2-(4-(2-((1H-Benzo[d]imidazol-2-yl)thio)ethyl)piperazin-1-yl)-N-(6-methyl-2-(methyl-sulfinyl)-4-(methylthio)pyridin-3-yl)acetamide formation; format: ADME
T1 sequence (P20815 whole entry): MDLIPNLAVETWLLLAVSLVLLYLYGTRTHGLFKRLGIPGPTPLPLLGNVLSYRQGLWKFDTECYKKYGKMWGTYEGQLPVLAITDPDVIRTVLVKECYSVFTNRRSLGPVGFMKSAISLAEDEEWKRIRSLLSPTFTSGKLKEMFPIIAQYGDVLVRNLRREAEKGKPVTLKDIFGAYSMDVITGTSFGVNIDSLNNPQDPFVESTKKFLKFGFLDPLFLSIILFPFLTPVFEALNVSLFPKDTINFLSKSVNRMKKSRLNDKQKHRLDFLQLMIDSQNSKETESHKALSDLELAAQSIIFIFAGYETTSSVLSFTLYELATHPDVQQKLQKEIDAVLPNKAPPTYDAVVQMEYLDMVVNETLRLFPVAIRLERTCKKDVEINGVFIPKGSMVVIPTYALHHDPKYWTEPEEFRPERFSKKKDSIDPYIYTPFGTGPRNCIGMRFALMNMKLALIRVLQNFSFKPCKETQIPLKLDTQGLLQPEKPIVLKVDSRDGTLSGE

Cytochrome P450 3A5 [2] = molecular target: T1, Cytochrome P450 3A5; experiment: Drug metabolism in human liver microsomes assessed as CYP3A5-mediated 2-(4-(2-((1H-Benzo[d]imidazol-2-yl)sulfinyl)ethyl)piperazin-1-yl)-N-(6-methyl-2,4-bis(methylthio)pyridin-3-yl)acetamide formation; format: ADME
Cytochrome P450 3A5 [3] = molecular target: T1, Cytochrome P450 3A5; experiment: Drug metabolism in human liver microsomes assessed as CYP3A5-mediated 2-(4-(2-((5-Hydroxy-1H-benzo[d]imidazol-2-yl)thio)ethyl)piperazin-1-yl)-N-(6-methyl-2,4-bis(methylthio)pyridin-3-yl)acetamide formation; format: ADME
Cytochrome P450 2C9 [4] = molecular target: T2, Cytochrome P450 2C9 (Homo sapiens, UniProt P11712); experiment: Drug metabolism in human liver microsomes assessed as CYP2C9-mediated 2-(4-(2-((1H-Benzo[d]imidazol-2-yl)thio)ethyl)piperazin-1-yl)-N-(6-methyl-4-(methylsulfinyl)-2-(methylthio)pyridin-3-yl)acetamide formation; format: ADME
T2 sequence (P11712 whole entry): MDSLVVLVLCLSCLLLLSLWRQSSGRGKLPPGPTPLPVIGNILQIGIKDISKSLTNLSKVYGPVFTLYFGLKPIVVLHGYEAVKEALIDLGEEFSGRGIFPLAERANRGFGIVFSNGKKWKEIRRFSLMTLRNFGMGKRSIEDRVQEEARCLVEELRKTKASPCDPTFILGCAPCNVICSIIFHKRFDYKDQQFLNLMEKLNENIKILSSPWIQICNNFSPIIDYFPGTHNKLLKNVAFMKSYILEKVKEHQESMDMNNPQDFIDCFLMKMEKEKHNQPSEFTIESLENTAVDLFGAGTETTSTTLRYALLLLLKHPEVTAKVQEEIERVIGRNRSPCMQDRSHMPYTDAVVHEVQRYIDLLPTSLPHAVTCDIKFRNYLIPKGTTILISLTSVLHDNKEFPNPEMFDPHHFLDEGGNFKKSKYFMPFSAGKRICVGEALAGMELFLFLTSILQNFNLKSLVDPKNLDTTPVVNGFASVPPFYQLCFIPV

Cytochrome P450 2C9 [5] = molecular target: T2, Cytochrome P450 2C9; experiment: Drug metabolism in human liver microsomes assessed as CYP2C9-mediated 2-(4-(2-((1H-Benzo[d]imidazol-2-yl)thio)ethyl)piperazin-1-yl)-N-(6-methyl-2-(methyl-sulfinyl)-4-(methylthio)pyridin-3-yl)acetamide formation; format: ADME
Cytochrome P450 2C9 [6] = molecular target: T2, Cytochrome P450 2C9; experiment: Drug metabolism in human liver microsomes assessed as CYP2C9-mediated 2-(4-(2-((1H-Benzo[d]imidazol-2-yl)sulfinyl)ethyl)piperazin-1-yl)-N-(6-methyl-2,4-bis(methylthio)pyridin-3-yl)acetamide formation; format: ADME
Cytochrome P450 2C9 [7] = molecular target: T2, Cytochrome P450 2C9; experiment: Drug metabolism in human liver microsomes assessed as CYP2C9-mediated 2-(4-(2-((5-Hydroxy-1H-benzo[d]imidazol-2-yl)thio)ethyl)piperazin-1-yl)-N-(6-methyl-2,4-bis(methylthio)pyridin-3-yl)acetamide formation; format: ADME
Cytochrome P450 2D6 = Cytochrome P450 2D6 (Homo sapiens, UniProt P10635); experiment: Drug metabolism in human liver microsomes assessed as CYP2D6-mediated 2-(4-(2-((1H-Benzo[d]imidazol-2-yl)thio)ethyl)piperazin-1-yl)-N-(6-methyl-4-(methylsulfinyl)-2-(methylthio)pyridin-3-yl)acetamide formation; format: ADME
Chain of Cytochrome P450 2D6 (P10635 whole entry): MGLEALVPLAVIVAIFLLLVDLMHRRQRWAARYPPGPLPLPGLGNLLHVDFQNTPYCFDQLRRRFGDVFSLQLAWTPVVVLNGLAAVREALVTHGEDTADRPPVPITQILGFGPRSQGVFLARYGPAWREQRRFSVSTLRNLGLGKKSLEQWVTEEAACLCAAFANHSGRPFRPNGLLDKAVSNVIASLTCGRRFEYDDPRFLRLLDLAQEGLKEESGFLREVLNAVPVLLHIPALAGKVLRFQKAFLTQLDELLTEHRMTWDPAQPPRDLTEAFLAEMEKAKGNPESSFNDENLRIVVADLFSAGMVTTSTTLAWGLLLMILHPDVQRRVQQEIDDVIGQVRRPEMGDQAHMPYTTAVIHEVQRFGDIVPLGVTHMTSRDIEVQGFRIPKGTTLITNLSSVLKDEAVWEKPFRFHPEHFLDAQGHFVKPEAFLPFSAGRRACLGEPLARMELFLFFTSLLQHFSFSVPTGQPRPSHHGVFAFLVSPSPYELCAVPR

Cytochrome P450 3A2 [8] = molecular target: T3, Cytochrome P450 3A2 (Rattus norvegicus, UniProt P05183); experiment: Drug metabolism in male rat liver microsomes assessed as CYP3A2-mediated 2-(4-(2-((1H-Benzo[d]imidazol-2-yl)thio)ethyl)piperazin-1-yl)-N-(6-methyl-4-(methylsulfinyl)-2-(methylthio)pyridin-3-yl)acetamide formation; format: ADME
T3 sequence (P05183 whole entry): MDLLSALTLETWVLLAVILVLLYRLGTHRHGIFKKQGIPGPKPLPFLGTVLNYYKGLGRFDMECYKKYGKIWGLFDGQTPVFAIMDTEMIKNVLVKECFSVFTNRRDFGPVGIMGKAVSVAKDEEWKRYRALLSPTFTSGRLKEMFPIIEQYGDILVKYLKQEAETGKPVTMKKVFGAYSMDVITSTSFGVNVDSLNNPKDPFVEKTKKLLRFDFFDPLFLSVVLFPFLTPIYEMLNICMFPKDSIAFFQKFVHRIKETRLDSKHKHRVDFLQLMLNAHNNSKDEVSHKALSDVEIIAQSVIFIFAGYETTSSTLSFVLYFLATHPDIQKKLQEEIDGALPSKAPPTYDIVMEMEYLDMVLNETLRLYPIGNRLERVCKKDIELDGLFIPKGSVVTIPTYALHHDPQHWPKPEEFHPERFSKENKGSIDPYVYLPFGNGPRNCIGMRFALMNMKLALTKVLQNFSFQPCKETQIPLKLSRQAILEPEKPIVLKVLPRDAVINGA

Cytochrome P450 3A2 [9] = molecular target: T3, Cytochrome P450 3A2; experiment: Drug metabolism in male rat liver microsomes assessed as CYP3A2-mediated 2-(4-(2-((1H-Benzo[d]imidazol-2-yl)thio)ethyl)piperazin-1-yl)-N-(6-methyl-2-(methyl-sulfinyl)-4-(methylthio)pyridin-3-yl)acetamide formation; format: ADME
[10] = Metabolic stability in female rat liver microsomes assessed as parent compound remaining; format: ADME, Microsome
Cytochrome P450 2C11 = molecular target: T4, Cytochrome P450 2C11 (Rattus norvegicus, UniProt P08683); experiment: Drug metabolism in […] rat liver microsomes assessed as CYP2C11-mediated 2-(4-(2-((1H-Benzo[d]imidazol-2-yl)thio)ethyl)piperazin-1-yl)-N-(6-methyl-4-(methylsulfinyl)-2-(methylthio)pyridin-3-yl)acetamide formation; format: ADME
T4 sequence (P08683 whole entry): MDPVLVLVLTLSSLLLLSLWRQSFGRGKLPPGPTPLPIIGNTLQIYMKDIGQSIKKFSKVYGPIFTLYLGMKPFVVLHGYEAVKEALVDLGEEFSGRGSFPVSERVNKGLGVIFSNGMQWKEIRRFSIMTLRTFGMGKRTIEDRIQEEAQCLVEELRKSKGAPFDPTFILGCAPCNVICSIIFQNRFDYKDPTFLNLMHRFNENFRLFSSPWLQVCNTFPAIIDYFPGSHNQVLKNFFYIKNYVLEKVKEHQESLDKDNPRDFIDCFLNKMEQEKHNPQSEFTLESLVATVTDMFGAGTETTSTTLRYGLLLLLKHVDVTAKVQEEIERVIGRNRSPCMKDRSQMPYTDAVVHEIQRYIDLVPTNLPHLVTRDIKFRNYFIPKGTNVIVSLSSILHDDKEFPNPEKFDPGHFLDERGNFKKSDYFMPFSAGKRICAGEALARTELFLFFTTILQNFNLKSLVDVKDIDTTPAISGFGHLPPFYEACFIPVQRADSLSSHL

[11] = Metabolic stability in male rat liver microsomes assessed as assessed as parent compound remaining; format: ADME, Microsome
[12] = Metabolic stability in cynomolgus monkey plasma assessed as parent compound remaining formation at 10 mg/kg, administered into stomach using nasogastric catheter measured upto 360 mins by column-switching HPLC method; format: ADME, organism-based, Macaca fascicularis; details: in vivo, po, 6 h
[13] = Drug metabolism in cynomolgus monkey plasma assessed as 2-(4-(2-((1H-Benzo[d]imidazol-2-yl)thio)ethyl)piperazin-1-yl)-N-(6-methyl-4-(methylsulfinyl)-2-(methylthio)pyridin-3-yl)acetamide formation at 10 mg/kg, administered into stomach using nasogastric catheter measured upto 360 mins by column-switching HPLC method; format: ADME, organism-based, Macaca fascicularis; details: in vivo, po, 6 h
[14] = Drug metabolism in cynomolgus monkey plasma assessed as 2-(4-(2-((1H-Benzo[d]imidazol-2-yl)thio)ethyl)piperazin-1-yl)-N-(6-methyl-2-(methyl-sulfinyl)-4-(methylthio)pyridin-3-yl)acetamide formation at 10 mg/kg, administered into stomach using nasogastric catheter measured upto 360 mins by column-switching HPLC method; format: ADME, organism-based, Macaca fascicularis; details: in vivo, po, 6 h
[15] = Drug metabolism in cynomolgus monkey plasma assessed as 2-(4-(2-((5-Hydroxy-1H-benzo[d]imidazol-2-yl)thio)ethyl)piperazin-1-yl)-N-(6-methyl-2,4-bis(methylthio)pyridin-3-yl)acetamide formation at 10 mg/kg, administered into stomach using nasogastric catheter measured upto 360 mins by column-switching HPLC method; format: ADME, organism-based, Macaca fascicularis; details: in vivo, po, 6 h
[16] = Drug metabolism in cynomolgus monkey plasma assessed as 2-(4-(2-((1H-Benzo[d]imidazol-2-yl)sulfinyl)ethyl)piperazin-1-yl)-N-(6-methyl-2,4-bis(methylthio)pyridin-3-yl)acetamide formation at 10 mg/kg, administered into stomach using nasogastric catheter measured upto 360 mins by column-switching HPLC method; format: ADME, organism-based, Macaca fascicularis; details: in vivo, po, 6 h

In the case of `CSc1cc(C)nc(SC)c1NC(=O)CN1CCN(CCSc2nc3ccccc3[nH]2)CC1.Cl`, the Drug metabolism (Cytochrome P450 3A5 [1]) is reported as “Metabolite_Detected”, the Drug metabolism (Cytochrome P450 3A5 [2]) is reported as “Metabolite_Detected” and the Drug metabolism (Cytochrome P450 3A5 [3]) is reported as “Metabolite_Detected”. The Drug metabolism (Cytochrome P450 2C9 [4]) was “Metabolite_Notdetected”, the Drug metabolism (Cytochrome P450 2C9 [5]) was “Metabolite_Notdetected” and the Drug metabolism (Cytochrome P450 2C9 [6]) was “Metabolite_Notdetected”. For the same molecule, the Drug metabolism (Cytochrome P450 2C9 [7]) was “Metabolite_Notdetected”, the Drug metabolism (Cytochrome P450 2D6) was “Metabolite_Detected” and the Drug metabolism (Cytochrome P450 3A2 [8]) was “Metabolite_Detected”. For the same molecule, the Drug metabolism (Cytochrome P450 3A2 [9]) was “Metabolite_Detected”, the Stabilty [10] was 76.1% and the Drug metabolism (Cytochrome P450 2C11) was “Metabolite_Notdetected”. The Stabilty [11] was 5.2%, the Stabilty [12] was “Stable” and the Drug metabolism [13] was “Metabolite_Detected”. The Drug metabolism [14] was “Metabolite_Notdetected”, the Drug metabolism [15] was “Metabolite_Detected” and the Drug metabolism [16] was “Metabolite_Detected”.
